From US12459974B2, “Bicyclic peptide ligands specific for Nectin-4” (priority 2018, dated 2025)
*1 amine or outer side, *2 acyl side, *3 side chain or, on linkers, in order; H or OH if unused. Where a SMILES comes first, the peptide text is derived from it. Bridges are numbered along the chain shown (N, C = ends). [ ]: non-standard residue; d: D form. TATA = O=C(CC[*:1])N1CN(C(=O)CC[*:2])CN(C(=O)CC[*:3])C1; NMeT = CN[C@H](C(=O)O)[C@@H](C)O; hArg = N=C(N)NCCCC[C@H](N)C(=O)O

molecular target: T1, human Nectin-4 (Homo sapiens, UniProt Q96NY8); assay: Nectin-4 competition binding assay (fluorescence polarisation); conditions: not given
T1 sequence (Q96NY8 32-510): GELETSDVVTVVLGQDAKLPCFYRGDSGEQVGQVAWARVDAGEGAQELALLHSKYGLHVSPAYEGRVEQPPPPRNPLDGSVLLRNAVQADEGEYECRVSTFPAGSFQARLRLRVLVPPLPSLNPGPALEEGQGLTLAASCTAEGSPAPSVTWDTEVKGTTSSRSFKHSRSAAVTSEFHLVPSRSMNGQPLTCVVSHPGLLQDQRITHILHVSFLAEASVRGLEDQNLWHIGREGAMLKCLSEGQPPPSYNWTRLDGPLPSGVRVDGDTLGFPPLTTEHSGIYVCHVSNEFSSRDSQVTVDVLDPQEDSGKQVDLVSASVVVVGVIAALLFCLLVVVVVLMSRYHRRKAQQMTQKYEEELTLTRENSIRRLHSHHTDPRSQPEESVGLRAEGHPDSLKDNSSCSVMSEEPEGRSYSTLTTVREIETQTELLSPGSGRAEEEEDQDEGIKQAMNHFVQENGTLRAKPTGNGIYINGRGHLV
How it was run: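 Serially diluted (1 in 2) peptides, max 5% DMSO, were mixed with human Nectin-4 and a fluorescent tracer peptide; FP read as in the direct binding assay. Ki from fitting mP values to a cubic competition equation using tracer concentration, tracer Kd and Nectin-4 concentration.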

Row | Structure (SMILES) | Ki
1 | CC[C@H](C)[C@@H]1NC(=O)[C@@H]2CCCN2C(=O)[C@H](Cc2c[nH]c3ccccc23)NC(=O)[C@H](CO)NC(=O)[C@H](Cc2c[nH]c3ccccc23)NC(=O)[C@H](CC(N)=O)NC(=O)[C@H](CCCCN)NC(=O)[C@H](CCSC)NC(=O)[C@@H]2CSCCC(=O)N3CN(CN(C3)C(=O)CCSC[C@H](NC(=O)[C@H](C)N)C(=O)N3CCC[C@H]3C(=O)N[C@@H](Cc3ccccc3)C(=O)N[C@@H](C)C(=O)N2)C(=O)CCSC[C@@H](C(=O)N[C@H](C(=O)N[C@@H](CC(N)=O)C(=O)N[C@@H](CCCCN)C(N)=O)[C@@H](C)O)NC(=O)[C@H](Cc2c[nH]c3ccccc23)NC1=O [BCY7354, A-(SEQ ID NO: 6)-TNK] | 884 nM

same assay, conditions: competition with fluorescent peptide SEQ ID NO: 217; read-out: Ki

Row | Structure (SMILES) | Ki
2 | CSCC[C@@H]1NC(=O)[C@@H]2CSCCC(=O)N3CN(CN(C3)C(=O)CCSC[C@H](NC(C)=O)C(=O)N3CCC[C@H]3C(=O)N[C@@H](Cc3cccc4ccccc34)C(=O)N[C@H](CCCNC(=N)N)C(=O)N2)C(=O)CCSC[C@@H](C(N)=O)NC(=O)[C@H](Cc2c[nH]c3ccccc23)NC(=O)[C@@H]2C[C@@H](O)CN2C(=O)[C@@H]2CCCN2C(=O)[C@H]([C@@H](C)O)NC(=O)[C@H](CCO)NC(=O)[C@H](Cc2c[nH]c3ccccc23)NC(=O)[C@H](CC(=O)O)NC(=O)[C@H](CCCCNC(=N)N)NC1=O [BCY8188, Ac-(SEQ ID NO: 193)] | 20 nM
3 | CC[C@H](C)[C@@H]1NC(=O)[C@H](CCCNC(=N)N)NC(=O)[C@H](C)NC(=O)[C@@H]2CSCCC(=O)N3CN(CN(C3)C(=O)CCSC[C@H](NC(=O)[C@H](Cc3c[nH]c4ccccc34)NC(=O)[C@H](CCCCN)NC(=O)[C@H](CCC(N)=O)NC(C)=O)C(=O)N[C@@H](C)C(=O)N3CCC[C@H]3C(=O)N[C@@H](CC(C)C)C(=O)N[C@@H](CO)C(=O)N[C@@H](CC(=O)O)C(=O)N[C@@H](Cc3ccc(O)cc3)C(=O)N[C@@H](Cc3c[nH]c4ccccc34)C(=O)N2)C(=O)CCSC[C@@H](C(N)=O)NC1=O [BCY7631, Ac-QKW-(SEQ ID NO: 106)] (Ac-QKWCAPLSDYWCARIC-NH2; linker 4-12-16 via TATA; C-terminus assumed) | 19 nM
4 | CC[C@H](C)[C@@H]1NC(=O)[C@@H]2CCCN2C(=O)[C@H](Cc2c[nH]c3ccccc23)NC(=O)[C@H](CO)NC(=O)[C@H](Cc2c[nH]c3ccccc23)NC(=O)[C@H](CC(N)=O)NC(=O)[C@H](CC(=O)O)NC(=O)[C@H](CCSC)NC(=O)[C@@H]2CSCCC(=O)N3CN(CN(C3)C(=O)CCSC[C@H](NC(C)=O)C(=O)N3CCC[C@H]3C(=O)N[C@@H](Cc3ccccc3)C(=O)NCC(=O)N2)C(=O)CCSC[C@@H](C(N)=O)NC(=O)[C@H](Cc2c[nH]c3ccccc23)NC1=O [BCY7659, Ac-(SEQ ID NO: 13)] (Ac-CPFGCMDNWSWPIWC-NH2; linker 1-5-15 via TATA; C-terminus assumed) | 77.9 nM
5 | CC[C@H](C)[C@@H]1NC(=O)[C@@H]2CCCN2C(=O)[C@H](Cc2c[nH]c3ccccc23)NC(=O)[C@H](CO)NC(=O)[C@H](Cc2c[nH]c3ccccc23)NC(=O)CNC(=O)[C@@H]2CCCN2C(=O)[C@H](CCSC)NC(=O)[C@@H]2CSCCC(=O)N3CN(CN(C3)C(=O)CCSC[C@H](NC(=O)CNC(=O)[C@@H]3CCCN3C(=O)[C@@H](N)CC(=O)O)C(=O)N3CCC[C@H]3C(=O)N[C@@H](Cc3ccccc3)C(=O)NCC(=O)N2)C(=O)CCSC[C@@H](C(=O)N[C@@H](C)C(N)=O)NC(=O)[C@H](Cc2c[nH]c3ccccc23)NC1=O [BCY3392, DPG-(SEQ ID NO: 50)-A] (H-DPGCPFGCMPGWSWPIWCA-NH2; linker 4-8-18 via TATA; N-terminus and C-terminus assumed) | 36.3 nM
6 | CC[C@H](C)[C@@H]1NC(=O)[C@@H]2CCCN2C(=O)[C@H](Cc2c[nH]c3ccccc23)NC(=O)[C@H](CO)NC(=O)[C@H](Cc2c[nH]c3ccccc23)NC(=O)[C@H](CC(N)=O)NC(=O)[C@H](CCCCN)NC(=O)[C@H](CCSC)NC(=O)[C@@H]2CSCCC(=O)N3CN(CN(C3)C(=O)CCSC[C@H](NC(=O)[C@H](C)N)C(=O)N3CCC[C@H]3C(=O)N[C@@H](Cc3ccccc3)C(=O)NCC(=O)N2)C(=O)CCSC[C@@H](C(=O)N[C@H](C(=O)N[C@@H](CC(N)=O)C(=O)N[C@@H](C)C(N)=O)[C@@H](C)O)NC(=O)[C@H](Cc2c[nH]c3ccccc23)NC1=O [BCY7348, A-(SEQ ID NO: 1)-TNA] | 20.6 nM

Continued, values first:

Row | Ki | Structure (SMILES)
7 | 21 nM | CC[C@H](C)[C@@H]1NC(=O)[C@@H]2CCCN2C(=O)[C@H](Cc2c[nH]c3ccccc23)NC(=O)[C@H](CO)NC(=O)[C@H](Cc2c[nH]c3ccccc23)NC(=O)[C@H](CC(N)=O)NC(=O)[C@@H]2CCCN2C(=O)[C@H](CCSC)NC(=O)[C@@H]2CSCCC(=O)N3CN(CN(C3)C(=O)CCSC[C@H](NC(C)=O)C(=O)N3CCC[C@H]3C(=O)N[C@@H](Cc3ccccc3)C(=O)NCC(=O)N2)C(=O)CCSC[C@@H](C(N)=O)NC(=O)[C@H](Cc2c[nH]c3ccccc23)NC1=O [BCY7614, Ac-(SEQ ID NO: 99)] (Ac-CPFGCMPNWSWPIWC-NH2; linker 1-5-15 via TATA; C-terminus assumed)
8 | 21.4 nM | CC[C@H](C)[C@@H]1NC(=O)[C@@H]2CCCN2C(=O)[C@H]([C@@H](C)O)NC(=O)[C@H](CO)NC(=O)[C@H](Cc2c[nH]c3ccccc23)NC(=O)[C@H](CC(N)=O)NC(=O)[C@H](CCCCNC(=N)N)NC(=O)[C@H](CC(C)C)NC(=O)[C@@H]2CSCCC(=O)N3CN(CN(C3)C(=O)CCSC[C@H](NC(C)=O)C(=O)N3CCC[C@H]3C(=O)N[C@@H](Cc3ccccc3)C(=O)N[C@H](CC(=O)O)C(=O)N2)C(=O)CCSC[C@@H](C(N)=O)NC(=O)[C@H](Cc2c[nH]c3ccccc23)NC1=O [BCY8039, Ac-(SEQ ID NO: 161)] (Ac-CPF[dD]CL[hArg]NWSTPIWC-NH2; linker 1-5-15 via TATA; C-terminus assumed)
9 | 191 nM | CC[C@H](C)[C@@H]1NC(=O)[C@@H]2CCCN2C(=O)[C@H]([C@@H](C)O)N(C)C(=O)[C@H](CO)NC(=O)[C@H](Cc2c[nH]c3ccccc23)NC(=O)[C@H](CC(N)=O)NC(=O)[C@H](CCCCNC(=N)N)NC(=O)[C@@H]2CSCCC(=O)N3CN(CN(C3)C(=O)CCSC[C@H](NC(C)=O)C(=O)N3CCC[C@H]3C(=O)N[C@@H](Cc3ccccc3)C(=O)N[C@H](CC(=O)O)C(=O)N2)C(=O)CCSC[C@@H](C(N)=O)NC(=O)[C@H](Cc2c[nH]c3ccccc23)NC1=O [BCY7979, Ac-(SEQ ID NO: 152)] (Ac-CPF[dD]C[hArg]NWS[NMeT]PIWC-NH2; linker 1-5-14 via TATA; C-terminus assumed)
10 | 8 nM | CC[C@H](C)[C@@H]1NC(=O)[C@@H]2CCCN2C(=O)[C@H]([C@@H](C)O)NC(=O)[C@H](CO)NC(=O)[C@H](Cc2c[nH]c3ccccc23)NC(=O)[C@H](CC(N)=O)N(C)C(=O)[C@H](CCCCNC(=N)N)NC(=O)[C@H](CCSC)NC(=O)[C@@H]2CSCCC(=O)N3CN(CN(C3)C(=O)CCSC[C@H](NC(C)=O)C(=O)N3CCC[C@H]3C(=O)N[C@@H](Cc3ccccc3)C(=O)N[C@H](CC(=O)O)C(=O)N2)C(=O)CCSC[C@@H](C(N)=O)NC(=O)[C@H](Cc2c[nH]c3ccccc23)NC1=O [BCY8154, Ac-(SEQ ID NO: 174)]
11 | 42.6 nM | CC[C@H](C)[C@@H]1NC(=O)[C@@H]2CCCN2C(=O)[C@H](Cc2c[nH]c3ccccc23)NC(=O)[C@H](CO)NC(=O)[C@H](Cc2c[nH]c3ccccc23)NC(=O)[C@H](CC(N)=O)NC(=O)[C@H](CCCNC(=N)N)NC(=O)[C@H](CCSC)NC(=O)[C@@H]2CSCCC(=O)N3CN(CN(C3)C(=O)CCSC[C@H](NC(=O)[C@H](C)N)C(=O)N3CCC[C@H]3C(=O)N[C@@H](Cc3ccccc3)C(=O)NCC(=O)N2)C(=O)CCSC[C@@H](C(=O)N[C@@H](C)C(N)=O)NC(=O)[C@H](Cc2c[nH]c3ccccc23)NC1=O [BCY429, A-(SEQ ID NO: 2)-A] (H-ACPFGCMRNWSWPIWCA-NH2; linker 2-6-16 via TATA; N-terminus and C-terminus assumed)
12 | 24.1 nM | CC[C@H](C)[C@@H]1NC(=O)[C@@H]2CCCN2C(=O)[C@H]([C@@H](C)O)NC(=O)[C@H](CO)NC(=O)[C@H](Cc2c[nH]c3ccccc23)NC(=O)[C@H](CC(N)=O)NC(=O)[C@H](CCCCN)NC(=O)[C@H](CCSC)NC(=O)[C@@H]2CSCCC(=O)N3CN(CN(C3)C(=O)CCSC[C@H](NC(C)=O)C(=O)N3CCC[C@H]3C(=O)N[C@@H](Cc3ccccc3)C(=O)NCC(=O)N2)C(=O)CCSC[C@@H](C(N)=O)NC(=O)[C@H](Cc2c[nH]c3ccccc23)NC1=O [BCY7665, Ac-(SEQ ID NO: 19)] (Ac-CPFGCMKNWSTPIWC-NH2; linker 1-5-15 via TATA; C-terminus assumed)
13 | 10 nM | CC[C@H](C)[C@@H]1NC(=O)[C@@H]2CCCN2C(=O)[C@H]([C@@H](C)O)NC(=O)[C@H](CO)NC(=O)[C@H](Cc2c[nH]c3ccccc23)NC(=O)[C@H](CC(N)=O)NC(=O)[C@H](CCCCNC(=N)N)NC(=O)[C@H](CCSC)NC(=O)[C@@H]2CSCCC(=O)N3CN(CN(C3)C(=O)CCSC[C@H](NC(C)=O)C(=O)N3CCC[C@H]3C(=O)N[C@@H](Cc3ccccc3)C(=O)N[C@H](CO)C(=O)N2)C(=O)CCSC[C@@H](C(N)=O)NC(=O)[C@H](Cc2c[nH]c3ccccc23)NC1=O [BCY7907, Ac-(SEQ ID NO: 143)]
14 | 170 nM | CC[C@H](C)[C@@H]1NC(=O)[C@H](CCCNC(=N)N)NC(=O)[C@H](CC(N)=O)NC(=O)[C@@H]2CSCCC(=O)N3CN(CN(C3)C(=O)CCSC[C@H](NC(C)=O)C(=O)N[C@@H](C)C(=O)N3CCC[C@H]3C(=O)N[C@@H](CC(C)C)C(=O)N[C@@H](CO)C(=O)N[C@@H](CC(=O)O)C(=O)N[C@@H](Cc3ccc(O)cc3)C(=O)N[C@@H](Cc3c[nH]c4ccccc34)C(=O)N2)C(=O)CCSC[C@@H](C(N)=O)NC1=O [BCY8044, Ac-(SEQ ID NO: 34)] (Ac-CAPLSDYWCNRIC-NH2; linker 1-9-13 via TATA; C-terminus assumed)
